Test results as given in US4910225A, “Locally administrable therapeutic composition for inflammatory disease” (Senju Pharmaceutical Co., Ltd., priority 1988, dated 1990).

How the values were obtained:
[1] = test system: experimental ophthalmitis induced by bovine serum albumin in white rabbits (ophthalmitis II); test: Ophthalmitis II: protein, white blood cell count and prostaglandins in anterior chamber aqueous humor; assay type: in vivo; conditions: for Prostaglandin in anterior chamber aqueous humor: less than the assay limit; for White Blood Cell count in anterior chamber aqueous humor: mean ± SE
Experimental: (§1) Seventeen male white rabbits weighing about 2 kg were used. They were fed with 80 g of Labo RG-RO (Nippon Agricultural Co., Ltd.) daily and had free access to tap water.
(§2) After 28 days when ophthalmitis I had nearly recovered, 2.5% BSA solution was administered in a dose of 25 mg/ml/kg into the auricular vein to cause ophthalmitis (ophthalmitis II). The severity of ophthalmitis was rated according to the rating scale^(1) of Yamauchi et al., based on the Draize method in which an increased weight given to the internal segment of the eye. Observation was made with a frequency of once in one or two days during the peak period of inflammation and once in three or four days before and after the peak period for ophthalmitis I and 3, 6, 12 and 24 hours after intravenous injection of BSA for ophthalmitis II.
(§3) Gross observation was made on the day after injection of BSA into the vitreous body and with the animals arranged in the decreasing order of severity of ocular inflammation, grouping was carried out in such a manner that the intensity distribution would be uniform over the groups. Thus, a physiological saline group of 7 animals, a 0.1% Compound [I] instillation group of 4 animals and a 0.5% Compound [I] instillation group of 5 animals were provided. After this grouping procedure, the test drugs and saline were respectively instilled into both eyes of the rabbits, 50 μl per dose, 4 times a day. For induction of ophthalmitis II, each drug was instilled into both eyes, 50 μl per dose, immediately after injection of BSA into the auricular vein and at 1-hour intervals thereafter, for a total of 14 times.

[2] = test system: carrageenin edema in rats; test: Carrageenin edema of the conjunctiva in rats; assay type: in vivo; conditions: 4 hours after carrageenin; for Weight of Edema: mean ± SE for 10 eyes
Experimental: 1. Sodium 3-(4-bromobenzoyl)-2-aminophenyl-acetate (hereinafter referred to as Compound [I])
2. Sodium 3-(4-chlorobenzoyl)-2-aminophenyl-acetate (hereinafter referred to as Compound [II])
3. Sodium 3-benzoyl-2-aminophenylacetate (hereinafter referred to as Compound [III])
Using female Wister rates weighing 100 g in groups of 5 animals or 10 eyes, 0.05 ml of 1% carrageenin (dissolved in physiological saline at 50° C.) as a phlogogen was injected beneath the conjuctiva of both eyes to induce edema. Physiological saline, as a control, and test drugs were respectively instilled into both eyes 40 and 20 minutes before and immediately after the injection of carrageenin, in the amount of 2.5 μl per dose. Four hours after the phlogogen treatment, each animal was sacrificed by cervical dislocation and in accordance with the method of Maistrello et al.^(2), the scalp was peeled off toward the eyelid and the edematous portion together with the skin was removed along the lid margin and weighed.
^(2) Maistrello et al.: Quantitative Effect of Topically Applied Anti-inflammatory Agents on External Ocular Inflammation in Rats: Journal of Pharmaceutical Science, volume 62, pp. 1455-60(1973).

[3] = test system: atropine-resistant miosis; test: Atropine-resistant miosis after paracentesis; assay type: in vivo, albino rabbits; conditions: for Miosis: 10 min after paracentesis
Experimental: The solutions of the following formulas were used.
Totally 28 male albino rabbits (4 rabbits×7 groups) with a body weight of about 2 kg werr used. They had been confirmed, before the experiment, to have mydriatic response to 1% atropine for at least 4 hours.
50 μl each of 1% atropine solution was instilled into both eyes of the animals one hour before the 1st paracenthesis, in which approx. 0.2 ml/eye of aqueous humor (primary aqueous humor) was collected. Topical application of 50 μl each of the test drug solutions was conducted 30 min before the paracenthesis. Pupil diameter of each eye was measured with a slide caliper immediately before and 10 min after the paracenthesis. The 2nd paracenthesis was conducted 90 min after the 1st one, in which approx. 0.2 ml/eye of aqueous humor (secondary aqueous humor) was collected.

[4] = pH and osmolarity of ophthalmic solutions; assay type: physicochemical
[5] = test system: experimental ophthalmitis induced by bovine serum albumin in white rabbits (ophthalmitis I); test: Ophthalmitis I: protein, white blood cell count and prostaglandins in anterior chamber aqueous humor; assay type: in vivo; conditions: for Prostaglandin in anterior chamber aqueous humor: less than the assay limit; for Protein in anterior chamber aqueous humor / White Blood Cell count in anterior chamber aqueous humor: mean ± SE
Experimental: as §1, §2, §3

[6] = Stability with polyvinyl pyrrolidone and sodium sulfite (Experimental Example 6); assay type: physicochemical; conditions: solution in which polyvinyl pyrrolidone and sodium sulfite coexist
[7] = test system: experimental ophthalmitis induced by bovine serum albumin in white rabbits (ophthalmitis II); test: Anti-inflammatory effect in ophthalmitis II (intravenous bovine serum albumin relapse), gross severity scores; assay type: in vivo; conditions: for Anterior chamber opacity, degree of inhibition relative to physiological saline group / Balbar conjunctival injection, degree of inhibition relative to physiological saline group / Corneal opacity, degree of inhibition relative to physiological saline group / Discharge, degree of inhibition relative to physiological saline group / External + Internal Grand Total Score, degree of inhibition relative to physiological saline group / External Segment Total Score, degree of inhibition relative to physiological saline group / Internal Segment Total Score, degree of inhibition relative to physiological saline group / Iridic injection, degree of inhibition relative to physiological saline group / Morphological change of iris, degree of inhibition relative to physiological saline group / Palpebral conjunctival edema, degree of inhibition relative to physiological saline group / Palpebral conjunctival injection, degree of inhibition relative to physiological saline group: ophthalmitis II; for Anterior chamber opacity score (Internal Segment) / Balbar conjunctival injection score (External Segment) / Corneal opacity score (External Segment) / Discharge score (External Segment) / External + Internal Grand Total Score / External Segment Total Score / Internal Segment Total Score / Iridic injection score (Internal Segment) / Morphological change of iris score (Internal Segment) / Palpebral conjunctival edema score (External Segment) / Palpebral conjunctival injection score (External Segment): ophthalmitis II, 3, 6, 12 and 24 hours after intravenous BSA, mean ± SE
Experimental: as §1, §2
^(1) Hideyasu Yamauchi, Makoto Ingu, Tadashi Iso and Kozo Uda: Anti-inflammatory effect of fluorometholone ophthalmic solution in experimental uveitis in rabbits, Folia Ophthalmologica Japonica, 24: 969-79 (1973).
as §3

In the case of `Nc1c(CC(=O)[O-])cccc1C(=O)c1ccc(Br)cc1.O.[Na+]` [Compound [I], Sodium 3-(4-bromobenzoyl)-2-aminophenylacetate monohydrate], the “Prostaglandin in anterior chamber aqueous humor” value ([1]; 0.1%) is reported as < 0.4 ng/mL, the “White Blood Cell count in anterior chamber aqueous humor” value (shortened to “White Blood Cell count”) ([1]; 0.1%) is reported as 1489 ± 499 Cells/mm^3 and the “Prostaglandin in anterior chamber aqueous humor” value ([1]; 0.5%) is reported as < 0.4 ng/mL. The “White Blood Cell count” value ([1]; 0.5%) was 1673 ± 277 Cells/mm^3, the “Degree of inhibition (carrageenin edema)” value ([2]; 1.0%) was 16.9% and the “Weight of Edema” value ([2]; 1.0%) was 43.93 ± 4.138 mg. For the same molecule, the “Degree of inhibition (carrageenin edema)” value ([2]; 2.5%) was 31.3%, the “Weight of Edema” value ([2]; 2.5%) was 36.323 ± 3.308 mg and the “Inhibitory activity on miosis after paracentesis” value ([3]; Compound [I] 0.0001-0.1%, indomethacin as high as 0.5%) was “dose-related inhibitory activity on miosis after paracentesis”. The “Inhibition (miosis)” value ([3]; content 0.0001%) was 9.2 ± 8.33%, the Miosis ([3]; content 0.0001%) was 21.5 ± 1.97% and the “Inhibition (miosis)” value ([3]; content 0.001%) was 19.7 ± 6.08%. For the same molecule, the Miosis ([3]; content 0.001%) was 19.0 ± 1.44%, the “Inhibition (miosis)” value ([3]; content 0.01%) was 35.2 ± 6.75% and the Miosis ([3]; content 0.01%) was 15.4 ± 1.60%. The “Inhibition (miosis)” value ([3]; content 0.1%) was 24.9 ± 16.4%, the Miosis ([3]; content 0.1%) was 17.4 ± 3.80% and the “Osmolarity of ophthalmic solution” value ([4]; 0.1% ophthalmic solution) was 325 mOsm/kg·H2 O. The “pH value of ophthalmic solutions” value ([4]; 0.5% and 0.1% ophthalmic solutions) was 8.11, the “Osmolarity of ophthalmic solution” value ([4]; 0.5% ophthalmic solution) was 310 mOsm/kg·H2 O and the Osmotic pressure ([4]; Experimental Example 3 solutions 0.1-0.0001%, pH 8.0) was 310 mOsm/Kg.H2 O. For the same molecule, the “Inhibition of prostaglandins in the aqueous humor” value ([5]; 0.1% and 0.5%) was “substantially complete inhibition of prostaglandins in the aqueous humor”, the “Prostaglandin in anterior chamber aqueous humor” value ([5]; 0.1%) was < 0.4 ng/mL and the “Protein in anterior chamber aqueous humor” value ([5]; 0.1%) was 48.7 ± 3.8 mg/Mml. The “White Blood Cell count” value ([5]; 0.1%) was 5593 ± 3436 Cells/mm^3, the “Prostaglandin in anterior chamber aqueous humor” value ([5]; 0.5%) was < 0.4 ng/mL and the “Protein in anterior chamber aqueous humor” value ([5]; 0.5%) was 28.4 ± 1.6 mg/Mml. The “White Blood Cell count” value ([5]; 0.5%) was 1980 ± 654 Cells/mm^3, the “Decomposition of Compound [I]” value [6] was “the decomposition of Compound [I] was not observed either” and the “Anterior chamber opacity, degree of inhibition relative to physiological saline group” value ([7]; 0.1%) was -47.4%. For the same molecule, the “Balbar conjunctival injection, degree of inhibition relative to physiological saline group” value ([7]; 0.1%) was 27.0%, the “Corneal opacity, degree of inhibition relative to physiological saline group” value ([7]; 0.1%) was 57.1% and the “Discharge, degree of inhibition relative to physiological saline group” value ([7]; 0.1%) was 100%. For the same molecule, the “External + Internal Grand Total Score, degree of inhibition relative to physiological saline group” value ([7]; 0.1%) was 35.7%, the “External Segment Total Score, degree of inhibition relative to physiological saline group” value ([7]; 0.1%) was 32.7% and the “Internal Segment Total Score, degree of inhibition relative to physiological saline group” value ([7]; 0.1%) was 40.7%. The “Iridic injection, degree of inhibition relative to physiological saline group” value ([7]; 0.1%) was 61.6%, the “Morphological change of iris, degree of inhibition relative to physiological saline group” value ([7]; 0.1%) was 44.2% and the “Palpebral conjunctival edema, degree of inhibition relative to physiological saline group” value ([7]; 0.1%) was 45.0%. The “Palpebral conjunctival injection, degree of inhibition relative to physiological saline group” value ([7]; 0.1%) was 29.8%, the “Anterior chamber opacity score (Internal Segment)” value ([7]; 0.1%) was 2.8 ± 0.8 and the “Balbar conjunctival injection score (External Segment)” value ([7]; 0.1%) was 8.1 ± 0.4. For the same molecule, the “Corneal opacity score (External Segment)” value ([7]; 0.1%) was 0.6 ± 0.2, the “Discharge score (External Segment)” value ([7]; 0.1%) was 0 and the “External + Internal Grand Total Score” value ([7]; 0.1%) was 21.8 ± 2.1. For the same molecule, the “External Segment Total Score” value ([7]; 0.1%) was 13.1 ± 1.1, the “Internal Segment Total Score” value ([7]; 0.1%) was 8.0 ± 1.2 and the “Iridic injection score (Internal Segment)” value ([7]; 0.1%) was 2.8 ± 0.1. The “Morphological change of iris score (Internal Segment)” value ([7]; 0.1%) was 2.4 ± 0.4, the “Palpebral conjunctival edema score (External Segment)” value ([7]; 0.1%) was 1.1 ± 0.4 and the “Palpebral conjunctival injection score (External Segment)” value ([7]; 0.1%) was 4.0 ± 0.3. The “Anterior chamber opacity, degree of inhibition relative to physiological saline group” value ([7]; 0.5%) was -47.4%, the “Balbar conjunctival injection, degree of inhibition relative to physiological saline group” value ([7]; 0.5%) was 27.0% and the “Corneal opacity, degree of inhibition relative to physiological saline group” value ([7]; 0.5%) was 57.1%. For the same molecule, the “Discharge, degree of inhibition relative to physiological saline group” value ([7]; 0.5%) was 100%, the “External + Internal Grand Total Score, degree of inhibition relative to physiological saline group” value ([7]; 0.5%) was 34.2% and the “External Segment Total Score, degree of inhibition relative to physiological saline group” value ([7]; 0.5%) was 31.4%. For the same molecule, the “Internal Segment Total Score, degree of inhibition relative to physiological saline group” value ([7]; 0.5%) was 33.3%, the “Iridic injection, degree of inhibition relative to physiological saline group” value ([7]; 0.5%) was 54.8% and the “Morphological change of iris, degree of inhibition relative to physiological saline group” value ([7]; 0.5%) was 32.6%. The “Palpebral conjunctival edema, degree of inhibition relative to physiological saline group” value ([7]; 0.5%) was 55.0%, the “Palpebral conjunctival injection, degree of inhibition relative to physiological saline group” value ([7]; 0.5%) was 60.5% and the “Anterior chamber opacity score (Internal Segment)” value ([7]; 0.5%) was 2.8 ± 0.5. The “Balbar conjunctival injection score (External Segment)” value ([7]; 0.5%) was 8.1 ± 0.3, the “Corneal opacity score (External Segment)” value ([7]; 0.5%) was 0.6 ± 0.2 and the “Discharge score (External Segment)” value ([7]; 0.5%) was 0. For the same molecule, the “External + Internal Grand Total Score” value ([7]; 0.5%) was 22.3 ± 1.1, the “External Segment Total Score” value ([7]; 0.5%) was 13.3 ± 0.6 and the “Internal Segment Total Score” value ([7]; 0.5%) was 9.0 ± 0.7. For the same molecule, the “Iridic injection score (Internal Segment)” value ([7]; 0.5%) was 3.3 ± 0.3, the “Morphological change of iris score (Internal Segment)” value ([7]; 0.5%) was 2.9 ± 0.3 and the “Palpebral conjunctival edema score (External Segment)” value ([7]; 0.5%) was 0.9 ± 0.2. The “Palpebral conjunctival injection score (External Segment)” value ([7]; 0.5%) was 3.7 ± 0.1 and the “Inhibitory effect on inflammatory symptoms induced by intravenous antigen” value ([7]; both concentrations (0.1% and 0.5%), gross observation) was “substantially complete inhibition at both concentrations”.
